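Test compounds were applied to cells in 96-well plates for 48 hours at 5 doses. GI50 marks 50% less growth.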 Active and inactive are the calls of the source. Cut-off read from the data, not from the text of the source: active = GI50 up to about 1.1 µM and inactive = higher.
Assays:
Test in all cases: inhibition of tumour cell growth, NCI panel, 48 h
[1] = test system: HT-29
[2] = test system: A498
[3] = test system: NCI-H23
[4] = test system: Hs-578T
[5] = test system: HCT-116
[6] = test system: MDA-MB-435
[7] = test system: HL-60
[8] = test system: OVCAR-3
[9] = test system: NCI-H226
[10] = test system: SF-295
[11] = test system: RPMI-8226
[12] = test system: HCT-15
[13] = test system: KM12
[14] = test system: M14
[15] = test system: SK-MEL-5
[16] = test system: EKVX
[17] = test system: OVCAR-8
[18] = test system: OVCAR-5
[19] = test system: SNB-75
[20] = test system: NCI/ADR-RES

Compound: CC1CCc2c(c(CC3CC(=O)NC(=O)C3)nn2-c2ccccc2)C1 (stereo not given)
- GI50 [1]: > 100 µM (inactive)
- GI50 [2]: > 100 µM (inactive)
- GI50 [3]: > 100 µM (inactive)
- GI50 [4]: > 100 µM (inactive)
- GI50 [5]: > 100 µM (inactive)
- GI50 [6]: > 100 µM (inactive)
- GI50 [7]: > 100 µM (inactive)
- GI50 [8]: > 100 µM (inactive)
- GI50 [9]: > 100 µM (inactive)
- GI50 [10]: > 100 µM (inactive)
- GI50 [11]: 80.5 µM (inactive)
- GI50 [12]: > 100 µM
- GI50 [13]: > 100 µM (inactive)
- GI50 [14]: > 100 µM (inactive)
- GI50 [15]: > 100 µM (inactive)
- GI50 [16]: > 100 µM (inactive)
- GI50 [17]: 93.8 µM (inactive)
- GI50 [18]: > 100 µM (inactive)
- GI50 [19]: > 100 µM (inactive)
- GI50 [20]: 75.2 µM (inactive)

Compound: COc1cc(/C=C/C=C2\CC/C(=C\C=C\c3ccc(O)c(OC)c3)C2=O)ccc1O
- GI50 [1]: > 100 µM (inactive)
- GI50 [2]: > 100 µM (inactive)
- GI50 [3]: > 73.1 µM (inactive)
- GI50 [4]: > 100 µM (inactive)
- GI50 [5]: > 100 µM (inactive)
- GI50 [6]: > 52.4 µM (inactive)
- GI50 [7]: 7.41 µM (inactive)
- GI50 [8]: > 100 µM (inactive)
- GI50 [9]: > 100 µM (inactive)
- GI50 [10]: > 100 µM (inactive)
- GI50 [11]: 57.3 µM (inactive)
- GI50 [12]: > 100 µM
- GI50 [13]: > 100 µM (inactive)
- GI50 [14]: > 100 µM (inactive)
- GI50 [15]: > 87.9 µM (inactive)
- GI50 [16]: > 97.3 µM (inactive)
- GI50 [17]: > 100 µM (inactive)
- GI50 [18]: > 100 µM (inactive)
- GI50 [19]: > 100 µM (inactive)
- GI50 [20]: > 100 µM (inactive)

Compound: C=CCN1C(=O)/C(=C/c2ccco2)N=C1SC/C=C/C
- GI50 [1]: 40.4 µM (inactive)
- GI50 [2]: 43.3 µM (inactive)
- GI50 [3]: 50.9 µM (inactive)
- GI50 [4]: 53.8 µM (inactive)
- GI50 [5]: 27.5 µM (inactive)
- GI50 [6]: 31.8 µM (inactive)
- GI50 [7]: 28.2 µM (inactive)
- GI50 [8]: 35.6 µM (inactive)
- GI50 [9]: > 100 µM (inactive)
- GI50 [10]: 40.4 µM (inactive)
- GI50 [11]: 28 µM (inactive)
- GI50 [12]: 35.7 µM
- GI50 [13]: 39.6 µM (inactive)
- GI50 [14]: 64.1 µM (inactive)
- GI50 [15]: 20.6 µM (inactive)
- GI50 [16]: 37.7 µM (inactive)
- GI50 [17]: 24.1 µM (inactive)
- GI50 [18]: > 100 µM (inactive)
- GI50 [19]: 33.8 µM (inactive)
- GI50 [20]: 37.1 µM (inactive)

Compound: c1c[nH]c(C23C4C5C6C4C2C6C53)n1 (stereo not given)
- GI50 [1]: > 100 µM (inactive)
- GI50 [2]: > 100 µM (inactive)
- GI50 [3]: > 100 µM (inactive)
- GI50 [4]: > 100 µM (inactive)
- GI50 [5]: > 100 µM (inactive)
- GI50 [6]: > 100 µM (inactive)
- GI50 [7]: > 100 µM (inactive)
- GI50 [8]: > 100 µM (inactive)
- GI50 [9]: > 100 µM (inactive)
- GI50 [10]: > 100 µM (inactive)
- GI50 [11]: > 100 µM (inactive)
- GI50 [12]: > 100 µM
- GI50 [13]: > 100 µM (inactive)
- GI50 [14]: > 100 µM (inactive)
- GI50 [15]: > 100 µM (inactive)
- GI50 [16]: > 100 µM (inactive)
- GI50 [17]: > 100 µM (inactive)
- GI50 [18]: > 100 µM (inactive)
- GI50 [19]: > 100 µM (inactive)
- GI50 [20]: > 100 µM (inactive)

Compound: COc1ccc(Nc2nc3cc(C(F)(F)F)ccc3nc2C(=O)O)cc1OC
- GI50 [1]: 40.2 µM (inactive)
- GI50 [2]: 30.7 µM (inactive)
- GI50 [3]: 26.4 µM (inactive)
- GI50 [4]: 52.2 µM (inactive)
- GI50 [5]: 27.4 µM (inactive)
- GI50 [6]: 33.8 µM (inactive)
- GI50 [7]: 28.4 µM (inactive)
- GI50 [8]: 17.5 µM (inactive)
- GI50 [9]: 16.4 µM (inactive)
- GI50 [10]: 10.5 µM (inactive)
- GI50 [11]: 25.8 µM (inactive)
- GI50 [12]: 35.6 µM
- GI50 [13]: 27.8 µM (inactive)
- GI50 [14]: 37.4 µM (inactive)
- GI50 [15]: 22.4 µM (inactive)
- GI50 [16]: 30.8 µM (inactive)
- GI50 [17]: 39.5 µM (inactive)
- GI50 [18]: 58.9 µM (inactive)
- GI50 [19]: 62.7 µM (inactive)
- GI50 [20]: 30.8 µM (inactive)

Compound: COc1ccc2oc(=N)c(C(=O)NCc3ccccc3)cc2c1
- GI50 [1]: 34.7 µM (inactive)
- GI50 [2]: 15.2 µM (inactive)
- GI50 [3]: 18.1 µM (inactive)
- GI50 [4]: 15.8 µM (inactive)
- GI50 [5]: 30.1 µM (inactive)
- GI50 [6]: 14.5 µM (inactive)
- GI50 [7]: > 100 µM (inactive)
- GI50 [8]: 18.8 µM (inactive)
- GI50 [9]: 22.7 µM (inactive)
- GI50 [10]: 24.7 µM (inactive)
- GI50 [11]: 45 µM (inactive)
- GI50 [12]: 21.1 µM
- GI50 [13]: 13.3 µM (inactive)
- GI50 [14]: 33.2 µM (inactive)
- GI50 [15]: 27.9 µM (inactive)
- GI50 [16]: 31.2 µM (inactive)
- GI50 [17]: 16.7 µM (inactive)
- GI50 [18]: 43.6 µM (inactive)
- GI50 [19]: 15.3 µM (inactive)
- GI50 [20]: 14.9 µM (inactive)

Compound: Nc1ccc2[nH]c(C(=O)N3CC(CCl)c4c3cc(N)c3ccccc43)cc2c1 (stereo not given)
- GI50 [1]: < 0.01 µM (active)
- GI50 [2]: < 0.01 µM (active)
- GI50 [3]: < 0.01 µM (active)
- GI50 [4]: 0.0204 µM (active)
- GI50 [5]: < 0.01 µM (active)
- GI50 [6]: 0.011 µM (active)
- GI50 [7]: < 0.01 µM (active)
- GI50 [8]: 0.0166 µM (active)
- GI50 [9]: 0.0105 µM (active)
- GI50 [10]: < 0.01 µM (active)
- GI50 [11]: < 0.0108 µM (active)
- GI50 [12]: < 0.01 µM
- GI50 [13]: 0.0114 µM (active)
- GI50 [14]: 0.0107 µM (active)
- GI50 [15]: < 0.01 µM (active)
- GI50 [16]: < 0.01 µM (active)
- GI50 [17]: < 0.01 µM (active)
- GI50 [18]: < 0.01 µM (active)
- GI50 [19]: < 0.01 µM (active)
- GI50 [20]: < 0.01 µM (active)

Compound: C=CC(c1ccccc1)[C@@]1(OC(C)=O)C(=O)C(=O)OC1C1COC(C)(C)O1 (stereo not given in full)
- GI50 [1]: 15.1 µM (inactive)
- GI50 [2]: 19.7 µM (inactive)
- GI50 [3]: 18.2 µM (inactive)
- GI50 [4]: 22.9 µM (inactive)
- GI50 [5]: 11.1 µM (inactive)
- GI50 [6]: 13.9 µM (inactive)
- GI50 [7]: 2.11 µM (inactive)
- GI50 [8]: 10.7 µM (inactive)
- GI50 [9]: 17.2 µM (inactive)
- GI50 [10]: 16.7 µM (inactive)
- GI50 [11]: 5.79 µM (inactive)
- GI50 [12]: 9.62 µM
- GI50 [13]: 15.2 µM (inactive)
- GI50 [14]: 11.1 µM (inactive)
- GI50 [15]: 15.9 µM (inactive)
- GI50 [16]: 17.9 µM (inactive)
- GI50 [17]: 13.1 µM (inactive)
- GI50 [18]: 18.5 µM (inactive)
- GI50 [19]: 14.5 µM (inactive)
- GI50 [20]: 15.5 µM (inactive)

Compound: O=c1[nH]nc(-c2ccccc2)n1-c1ccncc1
- GI50 [1]: > 100 µM (inactive)
- GI50 [2]: > 100 µM (inactive)
- GI50 [3]: > 100 µM (inactive)
- GI50 [4]: > 100 µM (inactive)
- GI50 [5]: > 100 µM (inactive)
- GI50 [6]: > 100 µM (inactive)
- GI50 [7]: > 100 µM (inactive)
- GI50 [8]: > 100 µM (inactive)
- GI50 [9]: > 100 µM (inactive)
- GI50 [10]: > 100 µM (inactive)
- GI50 [11]: > 100 µM (inactive)
- GI50 [12]: > 100 µM
- GI50 [13]: > 100 µM (inactive)
- GI50 [14]: > 100 µM (inactive)
- GI50 [15]: > 100 µM (inactive)
- GI50 [16]: > 100 µM (inactive)
- GI50 [17]: > 100 µM (inactive)
- GI50 [18]: > 100 µM (inactive)
- GI50 [19]: > 100 µM (inactive)
- GI50 [20]: > 100 µM (inactive)

Compound: CCC(c1ccc(OC)cc1)C1NC(=S)NC1=O (stereo not given)
- GI50 [1]: > 50 µM (inactive)
- GI50 [2]: > 50 µM (inactive)
- GI50 [3]: > 50 µM (inactive)
- GI50 [4]: > 50 µM (inactive)
- GI50 [5]: > 50 µM (inactive)
- GI50 [6]: > 50 µM (inactive)
- GI50 [7]: 12.4 µM (inactive)
- GI50 [8]: > 50 µM (inactive)
- GI50 [9]: > 50 µM (inactive)
- GI50 [10]: > 50 µM (inactive)
- GI50 [11]: > 50 µM (inactive)
- GI50 [12]: > 50 µM
- GI50 [13]: > 50 µM (inactive)
- GI50 [14]: > 50 µM (inactive)
- GI50 [15]: > 50 µM (inactive)
- GI50 [16]: 34.2 µM (inactive)
- GI50 [17]: > 50 µM (inactive)
- GI50 [18]: > 50 µM (inactive)
- GI50 [19]: > 50 µM (inactive)
- GI50 [20]: > 50 µM (inactive)
